According to publication PMC9045272, “Quorum-Sensing Master Regulator VfmE Is a c-di-GMP Effector That Controls Pectate Lyase Production in the Phytopathogen Dickeya dadantii” (Microbiology Spectrum, 2022):

What was measured:
VfmE = biological target: T1, VfmE (Dickeya dadantii, UniProt E0SMH0); test: ELISA with biotinylated c-di-GMP, competed by unlabelled c-di-GMP; assay type: binding; details: labelled compound (25 nM biotinylated c-di-GMP, Biolog); competition with 10 uL of 250 nM unlabelled c-di-GMP; PBS pH 7.4, room temperature; plate coated with lysate protein
T1 construct: full length, N-terminal 6xHis-MBP fusion (pMAL-c6T) kept, expressed in E. coli NEBExpress, soluble lysate coated on plate
T1 sequence (E0SMH0 entry or part of it): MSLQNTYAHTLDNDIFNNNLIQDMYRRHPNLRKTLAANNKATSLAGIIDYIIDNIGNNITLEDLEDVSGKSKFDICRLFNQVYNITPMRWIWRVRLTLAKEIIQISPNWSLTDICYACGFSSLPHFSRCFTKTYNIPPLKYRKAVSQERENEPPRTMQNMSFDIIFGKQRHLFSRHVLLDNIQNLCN

YcgR from D. dadantii = biological target: T2, YcgR from D. dadantii (Dickeya dadantii, UniProt E0SAQ7); test: as above; assay type: binding; details: labelled compound (25 nM biotinylated c-di-GMP, Biolog); competition with 10 uL of 250 nM unlabelled c-di-GMP; PBS pH 7.4, room temperature; plate coated with lysate protein; positive control protein
T2 construct: 6xHis-tagged, recombinant, soluble lysate coated on plate
T2 sequence (E0SAQ7 entry or part of it): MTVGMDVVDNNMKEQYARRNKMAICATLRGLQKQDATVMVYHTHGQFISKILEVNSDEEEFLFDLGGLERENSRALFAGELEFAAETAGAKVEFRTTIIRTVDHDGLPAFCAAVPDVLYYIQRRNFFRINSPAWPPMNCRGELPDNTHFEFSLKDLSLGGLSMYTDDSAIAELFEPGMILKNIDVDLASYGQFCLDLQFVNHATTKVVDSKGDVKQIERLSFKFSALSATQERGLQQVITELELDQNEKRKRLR

SMILES: Nc1nc2c(ncn2[C@@H]2O[C@@H]3COP(=O)(O)O[C@H]4[C@@H](O)[C@H](n5cnc6c(=O)[nH]c(N)nc65)O[C@@H]4COP(=O)(O)O[C@H]3[C@H]2O)c(=O)[nH]1 [c-di-GMP]
- ELISA with biotinylated c-di-GMP, competed by unlabelled c-di-GMP (VfmE): VfmE binds c-di-GMP with specificity comparable to that of a known c-di-GMP effector, YcgR
- ELISA with biotinylated c-di-GMP, competed by unlabelled c-di-GMP (YcgR from D. dadantii): We observed a reduced absorbance in both VfmE- and YcgR-treated wells
